Assay results published in patent US6369069B1 (Aventis Pharma Deutschland GmbH, priority 1998, dated 2002).

Tested on: Na^+-dependent Cl^−/HCO3^− exchanger (NCBE)
Assay: Inhibition of the Na+-dependent Cl−/HCO3− exchanger (NCBE) in human endothelial cells (pHi recovery, BCECF fluorescence, FLIPR)
Format: cell-based
Settings: 10 μM
How it was run: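 ECV-304 cells loaded with 5 μM BCECF-AM in NH4Cl-containing saline, then placed in Na+/HCO3−-free buffer to acidify. pHi recovery started with Na+/HCO3− buffer (50 μM HOE 642) plus compound at various concentrations. Fluorescence kinetics over 2 min at 35 °C, normalised to 100% and 0% (HCO3−-free) controls.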

Structure (SMILES) | Residual activity % of the NCBE at 10 μM [%]
CC(=O)N(Cc1ccc(-c2ccccc2S(=O)(=O)NC#N)cc1)CC1CC1 [Example 182] | 74.9
CCN(Cc1ccc(-c2ccccc2S(=O)(=O)NC#N)cc1)C(=O)C(=O)c1cccs1 [Example 199] | 54.7
N#CNS(=O)(=O)c1ccccc1-c1ccc(CN(Cc2ccc(Cl)c(Cl)c2)C(=O)C(=O)c2ccco2)cc1 [Example 263] | 54.0
COc1cccc(CC(=O)N(Cc2ccccc2)Cc2ccc(-c3ccccc3S(=O)(=O)NC#N)cc2)c1 [Example 19] | 25.9
N#CNS(=O)(=O)c1ccccc1-c1ccc(CN(Cc2cccc(-c3ccccc3)c2)C(=O)CCOc2ccccc2)cc1 [Example 347] | 19.3
COc1ccc(CCN(Cc2ccc(-c3ccccc3S(=O)(=O)NC#N)cc2)C(=O)c2cccs2)cc1 [Example 90] | 84.2
COc1ccccc1C(=O)N(Cc1ccc(-c2ccccc2S(=O)(=O)NC#N)cc1)Cc1ccccc1C [Example 332] | 31.7
C[C@@H](c1ccccc1)N(Cc1ccc(-c2ccccc2S(=O)(=O)NC#N)cc1)C(=O)Cc1cccs1 [Example 132] | 63.8
CC(C)(C)CC(=O)N(Cc1ccc(-c2ccccc2S(=O)(=O)NC#N)cc1)CC1CC1 [Example 161] | 81.6
Cc1ccc(CN(Cc2ccc(-c3ccccc3S(=O)(=O)NC#N)cc2)C(=O)c2cc3ccccc3s2)cc1 [Example 75] | 80.3
N#CNS(=O)(=O)c1ccccc1-c1ccc(CN(Cc2ccccc2Cl)C(=O)Cc2ccccc2)cc1 [Example 121] | 72.1
COc1ccccc1C(=O)N(Cc1ccc(-c2ccccc2S(=O)(=O)NC#N)cc1)Cc1cccc(C)c1 [Example 331] | 37.6
Cc1ccc(C(=O)N(CCO)Cc2ccc(-c3ccccc3S(=O)(=O)NC#N)cc2)cc1 [Example 68] | 94.4
N#CNS(=O)(=O)c1ccccc1-c1ccc(CN(Cc2ccccc2)C(=O)C(NC(=O)OCc2ccccc2)c2ccccc2)cc1 (stereo not drawn) [Example 242] | 72.4
N#CNS(=O)(=O)c1ccccc1-c1ccc(CN(Cc2ccccc2Cl)C(=O)Cc2ccc(Cl)cc2)cc1 [Example 152] | 29.5
N#CNS(=O)(=O)c1ccccc1-c1ccc(CN(Cc2cccc(Cl)c2)C(=O)NCc2ccccc2)cc1 [Example 307] | 55.8
CN(Cc1ccc(-c2ccccc2S(=O)(=O)NC#N)cc1)C(=O)C(=O)c1cccs1 [Example 198] | 51.1

Same assay, conditions: 10 μM compound; human endothelial cells (ECV-304); related to 100% and 0% pHi recovery controls

Structure (SMILES) | Residual activity of the NCBE at 10 μM [%]
N#CNS(=O)(=O)c1ccccc1-c1ccc(CN(Cc2ccccc2)C(=O)Cc2cccs2)c(Cl)c1 [Example 554, 4′-{[Benzyl-(2-thiophen-2-ylacetyl)amino]methyl}-3′-chlorobiphenyl-2-sulfonylcyanamide] | 15

Same assay, conditions: compound at 10 μM; R(3) to R(7) hydrogen series

Structure (SMILES) | Residual activity % of the NCBE at 10 μM [%]
CC(C(=O)N(Cc1ccc(-c2ccccc2S(=O)(=O)NC#N)cc1)CC1CC(C(=O)N2CCCC2)=NO1)c1cccs1 (stereo not drawn) [Example 397] | 44.0

Same assay, conditions: compound at 10 μM; sub-table with R7 substituent

Structure (SMILES) | Residual activity % of the NCBE at 10 μM [%]
Cc1ccc(-c2ccc(CN(Cc3ccc4ccccc4c3)C(=O)Cc3ccc(Cl)cc3)cc2)c(S(=O)(=O)NC#N)c1 [Example 531] | 75.6
Cc1ccc(-c2ccc(CN(Cc3ccccc3F)C(=O)Cc3cccs3)cc2)c(S(=O)(=O)NC#N)c1 [Example 519] | 95.6
Cc1ccc(-c2ccc(CN(Cc3ccccc3Cl)C(=O)CC3CCCCC3)cc2)c(S(=O)(=O)NC#N)c1 [Example 548] | 65.2
Cc1ccc(-c2ccc(CN(Cc3cccc(Cl)c3Cl)C(=O)Cc3ccc(Cl)cc3)cc2)c(S(=O)(=O)NC#N)c1 [Example 536] | 76.3
N#CNS(=O)(=O)c1ccc(Cl)cc1-c1ccc(CN(Cc2ccccc2)C(=O)Cc2cccs2)cc1 [Example 553] | 85.7
